In brackets after ≈: the same amount, converted by molar mass. Each block holds one compound with its values, some of them ahead of it.
Columns and labels:
RAW264.7 [1] = assay: Antiinflammatory activity against mouse RAW264.7 cells assessed as inhibition of IFN-gamma and LPS-induced COX2 production preincubated for 2 hrs followed by IFN-gamma and LPS stimulation and measured after 16 hrs by spectrophotometric analysis; type: functional, cell-based
J774.A1 [2] = assay: Antiinflammatory activity in mouse J774.A1 cells assessed as inhibition of LPS-induced IL-6 production at 10 microg/ml preincubated for 30 mins followed by LPS stimulation and measured after 2 hrs by Griess reagent based analysis; type: functional; conditions: J774.A1, 2.5 h, time 150 min
J774.A1 [3] = assay: Antiinflammatory activity in mouse J774.A1 cells assessed as inhibition of LPS-induced TNF-alpha production at 10 microg/ml preincubated for 30 mins followed by LPS stimulation and measured after 2 hrs by Griess reagent based analysis; type: functional; conditions: J774.A1, 2.5 h, time 150 min
RAW264.7 [4] = assay: Antiinflammatory activity in mouse RAW264.7 cells assessed as inhibition of IFN-gamma and LPS-induced NO production incubated for 24 hrs by Griess assay; type: functional, cell-based; conditions: RAW264.7, 24 h
RAW264.7 [5] = assay: Antiinflammatory activity in mouse RAW264.7 cells assessed as inhibition of LPS-induced NO production preincubated for 0.5 hrs followed by LPS stimulation and measured after 24 hrs by Griess reagent based analysis; type: functional, cell-based
Zingiber officinale = assay: Inhibition of prostaglandin biosynthesis in ginger; type: functional, organism-based
HepG2 [6] = assay: Antiinflammatory activity in human HepG2 cells assessed as inhibition of LPS-induced TNFalpha mRNA expression at 10 ug/ml preincubated for 1 hrs followed by LPS stimulation and measured after 24 hrs by qPCR analysis; type: functional; conditions: time 25 hrs
RAW264.7 [7] = assay: Cytotoxicity against mouse RAW264.7 cells assessed as reduction in cell viability at 0.07 to 0.1 mg/ml incubated for 24 hrs by MTT assay; type: toxicity, cell-based; conditions: raw264.7, 24 h, dose 0.07-0.1 mg/ml
RAW264.7 [8] = assay: Antiinflammatory activity in mouse RAW264.7 cells assessed as inhibition of LPS-induced NO production at 25 uM incubated for 24 hrs by Griess reagent based assay; type: functional
RAW264.7 [9] = assay: Antiinflammatory activity in mouse RAW264.7 cells assessed as inhibition of LPS-induced iNOS mRNA expression at 25 uM incubated for 12 hrs by PCR analysis; type: functional
RAW264.7 [10] = assay: Antiinflammatory activity in mouse RAW264.7 cells assessed as inhibition of LPS-induced NO production incubated for 20 hrs by Griess reagent based microplate reader analysis; type: functional, cell-based; conditions: RAW264.7, 20 h
RAW264.7 [11] = assay: Antiinflammatory activity in mouse RAW264.7 cells assessed as inhibition of LPS-induced COX-2 mRNA expression at 25 uM incubated for 12 hrs by PCR analysis; type: functional
[12] = Antiinflammatory activity in human PBMC cells assessed as inhibition of LPS-induced TNFalpha production at 25 uM incubated for 18 hrs by ELISA; type: functional
HepG2 [13] = assay: Antiinflammatory activity in human HepG2 cells assessed as inhibition of LPS-induced IL-1beta mRNA expression at 10 ug/ml preincubated for 1 hrs followed by LPS stimulation and measured after 24 hrs by qPCR analysis; type: functional; conditions: time 25 hrs
[14] = Antiinflammatory activity in human PBMC cells assessed as inhibition of LPS-induced IL-1beta production at 25 uM incubated for 18 hrs by ELISA; type: functional
RAW264.7 [15] = assay: Antiinflammatory activity in mouse RAW264.7 cells assessed as inhibition of KLA-induced TNFalpha expression at 0.02 mg/ml and measured after 24 hrs by ELISA; type: functional
HepG2 [16] = assay: Antiinflammatory activity in human HepG2 cells assessed as inhibition of LPS-induced IL-6 mRNA expression at 10 ug/ml preincubated for 1 hrs followed by LPS stimulation and measured after 24 hrs by qPCR analysis; type: functional; conditions: time 25 hrs
Mus musculus [17] = assay: Antiinflammatory activity in TPA-induced ear edema ICR mouse model assessed as inhibition of ear inflammation at 1 ug, TOP for 30 mins followed by TPA addition and measured after 6 hrs; type: functional; conditions: dose 1 µg, time 390 min, 6.5 h
[18] = Antioxidant activity assessed as DPPH radical scavenging activity incubated for 25 mins by spectrophotometric analysis; type: functional
RAW264.7 [19] = assay: Antiinflammatory activity in mouse RAW264.7 cells assessed as inhibition of LPS-induced iNOS expression at 5 ug/ml; type: functional
RAW264.7 [20] = assay: Antiinflammatory activity in mouse RAW264.7 cells assessed as inhibition of LPS-induced NO production; type: functional, cell-based
RAW264.7 [21] = assay: Antiinflammatory activity in mouse RAW264.7 cells assessed as inhibition of LPS-induced TNFalpha expression at 5 ug/ml; type: functional
RAW264.7 [22] = assay: Antiinflammatory activity in mouse RAW264.7 cells assessed as inhibition of LPS-induced NF-kappaB expression at 5 ug/ml; type: functional
RAW264.7 [23] = assay: Antiinflammatory activity in mouse RAW264.7 cells assessed as inhibition of LPS-induced IL-1beta expression at 5 ug/ml; type: functional
RAW264.7 [24] = assay: Antiinflammatory activity in mouse RAW264.7 cells assessed as inhibition of LPS-induced COX-2 expression at 5 ug/ml; type: functional
HUVEC [25] = assay: Antiinflammatory activity in human HUVEC cells assessed as inhibition of IL-1beta induced ICAM-1 expression at 1 to 50 uM preincubated for 2 hrs followed by IL-1beta stimulation and measured after 8 hrs by ELISA; type: functional; conditions: dose 1-50 µM, time 10 hrs
Mus musculus [26] = assay: Antiinflammatory activity in ICR mouse model of TPA-induced ear edema assessed as inhibition of ear inflammation at 20 uM,TOP for 30 mins followed by TPA addition and measured after 5 hrs; type: functional; conditions: 5.5 h, time 330 min
HUVEC [27] = assay: Antiinflammatory activity in human HUVEC cells assessed as inhibition of IL-1beta induced VCAM-1 expression at 1 to 50 uM preincubated for 2 hrs followed by IL-1beta stimulation and measured after 8 hrs by ELISA; type: functional; conditions: dose 1-50 µM, time 10 hrs
[28] = Inhibition of COX in bovine seminal vesicle assessed as reduction in PGE2 production using arachidonic acid as substrate; type: tissue-based, Bos taurus
HUVEC [29] = assay: Antiinflammatory activity in human HUVEC cells assessed as inhibition of TNFalpha-induced ICAM-1 expression at 1 to 50 uM preincubated for 2 hrs followed by TNFalpha stimulation and measured after 8 hrs by ELISA; type: functional; conditions: dose 1-50 µM, time 10 hrs
HUVEC [30] = assay: Antiinflammatory activity in human HUVEC cells assessed as inhibition of TNFalpha-induced VCAM-1 expression at 1 to 50 uM preincubated for 2 hrs followed by TNFalpha stimulation and measured after 8 hrs by ELISA; type: functional; conditions: dose 1-50 µM, time 10 hrs
[31] = target: T1, Polyunsaturated fatty acid 5-lipoxygenase (Homo sapiens, UniProt P09917); assay: Inhibition of 5-LOX in human neutrophils assessed as reduction in 5-HETE formation preincubated for 5 mins followed by arachidonic acid and A23187 addition and measured after 5 mins by RP-HPLC analysis; type: cell-based, Neutrophil
T1 sequence (P09917 whole entry): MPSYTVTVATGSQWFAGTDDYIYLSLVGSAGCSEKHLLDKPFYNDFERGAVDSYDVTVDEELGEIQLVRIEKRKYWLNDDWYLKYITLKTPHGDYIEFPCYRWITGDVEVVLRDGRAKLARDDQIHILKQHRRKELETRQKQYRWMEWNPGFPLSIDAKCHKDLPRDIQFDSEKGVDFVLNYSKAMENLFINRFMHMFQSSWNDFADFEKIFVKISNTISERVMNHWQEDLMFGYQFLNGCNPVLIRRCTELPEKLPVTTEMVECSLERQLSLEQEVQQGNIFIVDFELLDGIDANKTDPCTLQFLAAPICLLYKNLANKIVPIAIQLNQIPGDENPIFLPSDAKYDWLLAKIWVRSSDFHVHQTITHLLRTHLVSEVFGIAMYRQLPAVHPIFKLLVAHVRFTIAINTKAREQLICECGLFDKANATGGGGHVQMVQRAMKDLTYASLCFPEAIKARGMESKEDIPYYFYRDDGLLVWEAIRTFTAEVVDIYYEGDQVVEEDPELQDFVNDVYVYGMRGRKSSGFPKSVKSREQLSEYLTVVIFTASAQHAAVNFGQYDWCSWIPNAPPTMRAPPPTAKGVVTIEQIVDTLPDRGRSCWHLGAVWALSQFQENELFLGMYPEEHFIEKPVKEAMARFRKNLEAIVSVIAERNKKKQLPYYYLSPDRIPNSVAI

Compound: O=C(CCc1ccc(O)c(O)c1)C[C@H](CCc1ccc(O)c(O)c1)O[C@@H]1O[C@H](CO)[C@@H](O)[C@H](O)[C@H]1O
IC50 (RAW264.7 [1]): 33.7 µg/mL (≈ 66.3 µM)
inhibition at 10 µg/mL (J774.A1 [2]): 75%
inhibition at 10 µg/mL (J774.A1 [3]): 51%
IC50 (RAW264.7 [4]): 29.4 µg/mL (≈ 57.8 µM)
IC50 (RAW264.7 [5]): 10 µM

Compound: O=C(O)c1cc(O)c(O)c(O)c1 [GALLIC ACID]
IC50 [18]: 10.4 µM

Continued, in another order:

IC50 (Zingiber officinale): 50 µM
IC50 (RAW264.7 [10]): 0.6 µM
Compound: COc1cc(CC/C=C/C(=O)CCc2ccccc2)ccc1O
inhibition at 10 µg/mL (HepG2 [6]): 85%
Activity (RAW264.7 [7]): > 80%
inhibition at 25 µM (RAW264.7 [8]): 50%
inhibition at 25 µM (RAW264.7 [9]): 75.5%
inhibition at 25 µM (RAW264.7 [11]): 54.6%
inhibition at 25 µM [12]: 43%
inhibition at 10 µg/mL (HepG2 [13]): 86%
inhibition at 25 µM [14]: 85%
inhibition at 20 µg/mL (RAW264.7 [15]): 54%
inhibition at 10 µg/mL (HepG2 [16]): 52%
ID50 (Mus musculus [17]): 2.2 µmol

IC50 (RAW264.7 [20]): 5 µg/mL (≈ 17.8 µM)
Compound: O=C(/C=C/CCc1ccc(O)cc1)CCc1ccccc1
inhibition at 5 µg/mL (RAW264.7 [19]): 69%
inhibition at 5 µg/mL (RAW264.7 [21]): 71%
inhibition at 5 µg/mL (RAW264.7 [22]): 50%
inhibition at 5 µg/mL (RAW264.7 [23]): 70%
inhibition at 5 µg/mL (RAW264.7 [24]): 69%
ID50 (Mus musculus [17]): 0.8 µmol

IC50 (Zingiber officinale): 2.3 µM
IC50 [28]: 23 µM
IC50 [31]: 4 µM
Compound: COc1cc(/C=C/C(=O)CCCCc2ccccc2)ccc1O
inhibition (INH) (HUVEC [25]): 0%
inhibition in vivo at 20 µM (Mus musculus [26]): 52%
inhibition (INH) (HUVEC [27]): 0%
inhibition (INH) (HUVEC [29]): 0%
inhibition (INH) (HUVEC [30]): 0%
